Experiment [1] concerns the target Casein kinase I isoform gamma-1 (Homo sapiens) (UniProt Q9HCP0). The experiment can be described thus: Residual activity of CK1gamma1 at 10 uM by microplate scintillation counting.
Experiment [2] concerns the target T1, Serine/threonine-protein kinase 4 (Homo sapiens) (UniProt Q13043).
T1 sequence (whole entry): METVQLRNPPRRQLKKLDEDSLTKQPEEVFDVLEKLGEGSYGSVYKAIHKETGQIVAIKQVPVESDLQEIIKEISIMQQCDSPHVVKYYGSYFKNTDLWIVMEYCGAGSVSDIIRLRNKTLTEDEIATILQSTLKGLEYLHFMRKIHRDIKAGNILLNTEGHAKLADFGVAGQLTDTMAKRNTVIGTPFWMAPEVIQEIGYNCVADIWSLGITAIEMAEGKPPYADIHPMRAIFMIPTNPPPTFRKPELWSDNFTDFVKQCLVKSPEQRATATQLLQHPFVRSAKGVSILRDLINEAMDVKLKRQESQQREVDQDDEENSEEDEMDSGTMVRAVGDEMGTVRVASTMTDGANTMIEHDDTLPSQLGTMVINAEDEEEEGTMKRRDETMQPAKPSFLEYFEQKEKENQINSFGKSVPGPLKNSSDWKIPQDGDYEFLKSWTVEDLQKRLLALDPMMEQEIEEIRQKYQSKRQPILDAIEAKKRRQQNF
As to the kind of experiment: Residual activity of MST1 at 0.1 uM by microplate scintillation counting.

The target in experiment [3] is T2, Protein kinase C zeta type (Homo sapiens) (UniProt Q05513).
T2 sequence (whole entry): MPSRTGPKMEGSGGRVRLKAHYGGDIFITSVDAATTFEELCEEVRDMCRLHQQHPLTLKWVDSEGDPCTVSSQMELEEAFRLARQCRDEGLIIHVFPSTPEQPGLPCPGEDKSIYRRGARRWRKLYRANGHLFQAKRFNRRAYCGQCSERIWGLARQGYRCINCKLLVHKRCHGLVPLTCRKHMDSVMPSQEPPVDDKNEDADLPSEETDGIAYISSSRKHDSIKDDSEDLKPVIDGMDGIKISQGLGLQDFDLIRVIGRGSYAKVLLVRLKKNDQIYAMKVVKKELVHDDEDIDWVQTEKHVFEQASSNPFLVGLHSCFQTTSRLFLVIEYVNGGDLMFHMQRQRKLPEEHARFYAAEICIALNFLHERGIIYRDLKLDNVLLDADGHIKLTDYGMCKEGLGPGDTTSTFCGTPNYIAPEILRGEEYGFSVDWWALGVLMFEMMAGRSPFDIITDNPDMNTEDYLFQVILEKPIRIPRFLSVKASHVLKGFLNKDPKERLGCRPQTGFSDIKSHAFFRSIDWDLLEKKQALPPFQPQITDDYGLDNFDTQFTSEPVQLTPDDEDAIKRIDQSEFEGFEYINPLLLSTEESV
The experiment can be described thus: Residual activity of PKCzeta at 10 uM by microplate scintillation counting.

Experiment [4] is described as follows: Residual activity of S6K at 10 uM by microplate scintillation counting.
The target of experiment [5] is Protein kinase C theta type (Homo sapiens) (UniProt Q04759). As to the kind of experiment: Residual activity of PKCtheta at 10 uM by microplate scintillation counting.
Chain of Protein kinase C theta type (Homo sapiens) (Q04759 whole entry, looked up): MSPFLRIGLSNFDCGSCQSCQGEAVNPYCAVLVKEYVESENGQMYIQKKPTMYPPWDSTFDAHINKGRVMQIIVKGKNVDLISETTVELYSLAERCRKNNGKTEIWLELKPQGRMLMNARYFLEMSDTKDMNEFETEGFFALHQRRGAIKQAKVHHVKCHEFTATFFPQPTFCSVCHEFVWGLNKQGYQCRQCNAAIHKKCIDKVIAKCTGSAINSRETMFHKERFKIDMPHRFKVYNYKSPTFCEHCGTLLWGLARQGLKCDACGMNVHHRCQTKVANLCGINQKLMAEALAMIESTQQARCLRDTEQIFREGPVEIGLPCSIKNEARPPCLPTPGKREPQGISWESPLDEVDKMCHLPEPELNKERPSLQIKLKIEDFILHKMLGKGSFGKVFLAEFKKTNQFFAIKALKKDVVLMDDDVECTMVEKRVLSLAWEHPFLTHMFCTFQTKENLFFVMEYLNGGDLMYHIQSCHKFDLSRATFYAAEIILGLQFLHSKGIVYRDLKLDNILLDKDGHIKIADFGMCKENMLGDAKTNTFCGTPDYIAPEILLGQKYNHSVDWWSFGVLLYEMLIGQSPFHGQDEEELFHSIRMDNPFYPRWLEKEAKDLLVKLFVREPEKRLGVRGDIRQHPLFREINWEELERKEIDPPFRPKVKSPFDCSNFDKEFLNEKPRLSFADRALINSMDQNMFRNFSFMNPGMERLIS
Experiment [6] has as its target Glycogen synthase kinase-3 alpha (Homo sapiens) (UniProt P49840). The experiment can be described thus: Residual activity of GSK3alpha at 10 uM by microplate scintillation counting.
Experiment [7] deals with Mitogen-activated protein kinase kinase kinase 14 (Homo sapiens) (UniProt Q99558). The experiment can be described thus: Residual activity of NIK at 10 uM by microplate scintillation counting.
The target in experiment [8] is T3, Activin receptor type-1 (Homo sapiens) (UniProt Q04771).
T3 sequence (whole entry): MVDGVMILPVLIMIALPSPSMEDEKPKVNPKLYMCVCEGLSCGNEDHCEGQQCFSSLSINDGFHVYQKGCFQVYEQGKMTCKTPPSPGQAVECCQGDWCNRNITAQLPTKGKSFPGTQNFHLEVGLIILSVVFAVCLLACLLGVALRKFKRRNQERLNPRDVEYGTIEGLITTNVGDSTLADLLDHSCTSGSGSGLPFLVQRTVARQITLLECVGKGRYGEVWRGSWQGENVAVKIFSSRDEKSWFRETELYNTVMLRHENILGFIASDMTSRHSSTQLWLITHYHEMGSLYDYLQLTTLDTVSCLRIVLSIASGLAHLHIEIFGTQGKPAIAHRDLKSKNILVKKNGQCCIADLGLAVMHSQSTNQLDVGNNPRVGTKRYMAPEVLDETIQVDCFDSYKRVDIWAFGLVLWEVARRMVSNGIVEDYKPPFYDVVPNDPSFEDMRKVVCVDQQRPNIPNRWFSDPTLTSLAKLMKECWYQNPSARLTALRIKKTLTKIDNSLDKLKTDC
As to the kind of experiment: Residual activity of ACV-R1 at 0.1 uM by microplate scintillation counting.

Experiment [9] concerns the target Casein kinase II subunit alpha (Homo sapiens) (UniProt P68400). The experiment can be described thus: Residual activity of CK2alpha1 at 1 uM by microplate scintillation counting.
Experiment [10] deals with Rho-associated protein kinase 2 (Homo sapiens) (UniProt O75116). As to the kind of experiment: Residual activity of ROCK2 at 10 uM by microplate scintillation counting.
Chain of Rho-associated protein kinase 2 (Homo sapiens) (O75116 whole entry, looked up, canonical isoform): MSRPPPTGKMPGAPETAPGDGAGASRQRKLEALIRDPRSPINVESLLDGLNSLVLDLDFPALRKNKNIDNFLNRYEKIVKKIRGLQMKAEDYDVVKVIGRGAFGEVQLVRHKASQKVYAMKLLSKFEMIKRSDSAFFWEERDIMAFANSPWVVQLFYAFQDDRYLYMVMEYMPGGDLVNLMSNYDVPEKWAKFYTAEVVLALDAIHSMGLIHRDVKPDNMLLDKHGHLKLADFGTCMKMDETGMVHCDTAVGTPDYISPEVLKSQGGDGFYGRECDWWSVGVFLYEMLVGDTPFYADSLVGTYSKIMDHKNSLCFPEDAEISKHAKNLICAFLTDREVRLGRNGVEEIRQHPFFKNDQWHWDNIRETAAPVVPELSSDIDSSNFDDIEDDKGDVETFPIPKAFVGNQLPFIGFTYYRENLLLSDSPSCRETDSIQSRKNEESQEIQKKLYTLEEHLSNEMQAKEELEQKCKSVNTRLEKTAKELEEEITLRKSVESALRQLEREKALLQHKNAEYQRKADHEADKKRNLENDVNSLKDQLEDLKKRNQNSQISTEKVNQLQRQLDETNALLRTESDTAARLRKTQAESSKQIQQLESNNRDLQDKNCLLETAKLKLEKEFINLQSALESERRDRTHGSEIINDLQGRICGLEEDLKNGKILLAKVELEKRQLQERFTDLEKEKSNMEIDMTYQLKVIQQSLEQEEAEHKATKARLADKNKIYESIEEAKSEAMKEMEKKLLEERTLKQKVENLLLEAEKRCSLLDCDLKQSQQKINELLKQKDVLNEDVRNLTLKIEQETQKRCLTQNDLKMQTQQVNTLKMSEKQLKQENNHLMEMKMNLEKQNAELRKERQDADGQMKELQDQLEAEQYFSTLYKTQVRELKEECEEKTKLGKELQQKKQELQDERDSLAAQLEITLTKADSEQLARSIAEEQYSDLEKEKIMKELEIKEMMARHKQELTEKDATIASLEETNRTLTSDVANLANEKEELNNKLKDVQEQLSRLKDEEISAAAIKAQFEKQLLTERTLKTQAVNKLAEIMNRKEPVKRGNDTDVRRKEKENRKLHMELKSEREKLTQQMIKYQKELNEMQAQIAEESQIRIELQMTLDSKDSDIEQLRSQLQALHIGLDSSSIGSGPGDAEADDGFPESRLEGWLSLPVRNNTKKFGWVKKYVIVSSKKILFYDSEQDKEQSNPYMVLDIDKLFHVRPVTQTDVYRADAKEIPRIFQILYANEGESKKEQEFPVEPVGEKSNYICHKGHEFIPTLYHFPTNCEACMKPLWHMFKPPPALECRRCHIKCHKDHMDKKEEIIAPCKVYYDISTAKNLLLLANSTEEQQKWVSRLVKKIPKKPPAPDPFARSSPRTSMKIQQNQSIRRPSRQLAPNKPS
Experiment [11] addresses Casein kinase I isoform delta (Homo sapiens) (UniProt P48730). As to the kind of experiment: Residual activity of CK1delta at 1 uM by microplate scintillation counting.
Experiment [12] concerns the target T4, Serine/threonine-protein kinase VRK1 (Homo sapiens) (UniProt Q99986).
T4 sequence (whole entry): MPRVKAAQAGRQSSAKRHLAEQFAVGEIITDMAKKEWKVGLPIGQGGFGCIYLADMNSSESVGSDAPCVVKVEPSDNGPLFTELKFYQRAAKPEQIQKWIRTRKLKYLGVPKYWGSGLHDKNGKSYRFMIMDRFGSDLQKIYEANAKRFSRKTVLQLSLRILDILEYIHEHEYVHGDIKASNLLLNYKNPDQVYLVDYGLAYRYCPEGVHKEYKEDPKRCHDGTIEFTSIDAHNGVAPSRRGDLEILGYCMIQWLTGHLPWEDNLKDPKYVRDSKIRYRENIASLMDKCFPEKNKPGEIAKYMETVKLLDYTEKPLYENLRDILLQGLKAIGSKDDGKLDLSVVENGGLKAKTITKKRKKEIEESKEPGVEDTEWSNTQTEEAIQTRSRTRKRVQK
As to the kind of experiment: Residual activity of VRK1 at 10 uM by microplate scintillation counting.

Experiment [13] concerns the target ALK tyrosine kinase receptor (Homo sapiens) (UniProt Q9UM73). As to the kind of experiment: Residual activity of ALK at 10 uM by microplate scintillation counting.

Chain of Casein kinase I isoform delta (Homo sapiens) (P48730 whole entry, looked up, canonical isoform): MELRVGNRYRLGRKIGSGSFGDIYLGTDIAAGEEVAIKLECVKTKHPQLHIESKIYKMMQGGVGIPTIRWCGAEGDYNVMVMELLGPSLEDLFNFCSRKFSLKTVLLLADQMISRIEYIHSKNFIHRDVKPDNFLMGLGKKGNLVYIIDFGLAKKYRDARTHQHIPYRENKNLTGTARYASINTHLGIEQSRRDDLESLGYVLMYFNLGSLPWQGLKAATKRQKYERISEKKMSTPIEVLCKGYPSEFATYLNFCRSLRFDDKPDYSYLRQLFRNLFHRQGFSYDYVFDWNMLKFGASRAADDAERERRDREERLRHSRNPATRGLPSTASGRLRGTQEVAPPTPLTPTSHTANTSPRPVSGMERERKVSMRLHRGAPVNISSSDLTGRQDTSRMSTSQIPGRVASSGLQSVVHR
Chain of Glycogen synthase kinase-3 alpha (Homo sapiens) (P49840 2-483 limits assumed): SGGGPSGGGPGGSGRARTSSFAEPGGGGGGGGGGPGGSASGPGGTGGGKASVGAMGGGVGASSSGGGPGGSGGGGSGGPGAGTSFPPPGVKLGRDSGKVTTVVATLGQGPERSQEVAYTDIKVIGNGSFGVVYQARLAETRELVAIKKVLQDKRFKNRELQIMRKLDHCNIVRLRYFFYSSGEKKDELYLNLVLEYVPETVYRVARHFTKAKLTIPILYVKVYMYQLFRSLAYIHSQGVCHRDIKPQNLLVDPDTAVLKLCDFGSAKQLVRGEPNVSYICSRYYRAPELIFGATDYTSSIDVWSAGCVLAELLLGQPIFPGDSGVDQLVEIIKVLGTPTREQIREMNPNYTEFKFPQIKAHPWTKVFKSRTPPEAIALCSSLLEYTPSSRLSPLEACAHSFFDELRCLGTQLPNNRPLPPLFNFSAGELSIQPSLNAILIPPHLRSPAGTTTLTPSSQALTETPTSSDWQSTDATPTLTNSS
Chain of Casein kinase I isoform gamma-1 (Homo sapiens) (Q9HCP0 whole entry, looked up, canonical isoform): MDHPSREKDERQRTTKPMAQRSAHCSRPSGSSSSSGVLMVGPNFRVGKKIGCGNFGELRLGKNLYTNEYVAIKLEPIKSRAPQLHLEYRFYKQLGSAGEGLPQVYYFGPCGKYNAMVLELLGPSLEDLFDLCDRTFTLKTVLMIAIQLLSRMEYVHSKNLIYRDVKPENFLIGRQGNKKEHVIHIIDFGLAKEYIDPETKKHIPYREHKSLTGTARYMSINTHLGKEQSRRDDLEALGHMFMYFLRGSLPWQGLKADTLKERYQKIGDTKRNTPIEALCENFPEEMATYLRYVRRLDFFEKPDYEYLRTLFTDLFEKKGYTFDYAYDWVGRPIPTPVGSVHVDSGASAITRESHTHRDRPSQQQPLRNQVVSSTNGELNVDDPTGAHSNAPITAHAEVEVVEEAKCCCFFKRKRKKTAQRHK
Chain of ALK tyrosine kinase receptor (Homo sapiens) (Q9UM73 19-1620 limits assumed): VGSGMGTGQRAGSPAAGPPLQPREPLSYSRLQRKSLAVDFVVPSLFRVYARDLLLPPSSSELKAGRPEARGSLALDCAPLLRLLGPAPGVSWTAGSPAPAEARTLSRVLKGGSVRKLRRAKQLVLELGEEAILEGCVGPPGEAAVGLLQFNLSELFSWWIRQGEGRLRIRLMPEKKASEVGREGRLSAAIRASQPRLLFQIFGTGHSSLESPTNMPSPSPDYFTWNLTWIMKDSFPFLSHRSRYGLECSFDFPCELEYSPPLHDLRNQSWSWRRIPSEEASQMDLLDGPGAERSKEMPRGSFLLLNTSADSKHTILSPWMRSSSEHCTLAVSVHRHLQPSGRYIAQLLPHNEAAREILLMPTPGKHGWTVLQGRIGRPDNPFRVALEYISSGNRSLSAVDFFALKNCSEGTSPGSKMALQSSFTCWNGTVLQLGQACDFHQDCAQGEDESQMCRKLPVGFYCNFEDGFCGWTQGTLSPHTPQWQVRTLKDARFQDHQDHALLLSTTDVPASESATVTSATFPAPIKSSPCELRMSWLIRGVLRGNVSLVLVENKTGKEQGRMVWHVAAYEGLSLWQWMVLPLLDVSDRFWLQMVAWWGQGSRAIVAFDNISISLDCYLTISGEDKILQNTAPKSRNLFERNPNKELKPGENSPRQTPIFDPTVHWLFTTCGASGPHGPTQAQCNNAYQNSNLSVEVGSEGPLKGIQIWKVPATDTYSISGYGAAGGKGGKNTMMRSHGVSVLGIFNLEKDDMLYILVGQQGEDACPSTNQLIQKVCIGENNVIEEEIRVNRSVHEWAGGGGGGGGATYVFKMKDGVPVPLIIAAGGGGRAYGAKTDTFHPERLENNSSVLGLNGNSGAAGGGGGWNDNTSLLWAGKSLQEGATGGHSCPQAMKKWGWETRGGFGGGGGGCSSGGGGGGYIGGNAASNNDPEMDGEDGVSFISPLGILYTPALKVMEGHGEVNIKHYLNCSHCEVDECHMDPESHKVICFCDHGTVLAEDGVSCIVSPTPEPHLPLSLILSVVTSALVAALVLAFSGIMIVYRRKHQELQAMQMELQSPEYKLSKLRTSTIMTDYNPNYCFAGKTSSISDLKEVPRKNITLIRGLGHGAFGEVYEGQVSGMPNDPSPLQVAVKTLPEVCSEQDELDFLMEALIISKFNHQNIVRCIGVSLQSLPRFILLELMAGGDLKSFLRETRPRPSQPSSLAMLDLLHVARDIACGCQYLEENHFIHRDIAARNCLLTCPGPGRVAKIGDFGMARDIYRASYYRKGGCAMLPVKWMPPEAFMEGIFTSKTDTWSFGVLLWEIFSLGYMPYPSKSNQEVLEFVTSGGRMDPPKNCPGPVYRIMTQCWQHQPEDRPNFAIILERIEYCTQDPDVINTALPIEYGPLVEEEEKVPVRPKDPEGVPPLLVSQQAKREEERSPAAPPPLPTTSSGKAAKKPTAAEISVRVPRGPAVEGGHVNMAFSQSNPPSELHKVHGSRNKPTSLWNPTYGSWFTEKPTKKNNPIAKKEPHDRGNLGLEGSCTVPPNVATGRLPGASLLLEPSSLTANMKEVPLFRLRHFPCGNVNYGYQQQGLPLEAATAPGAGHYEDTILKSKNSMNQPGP

For `COc1cc2c(Oc3ccc(-c4nc5ccccc5s4)cc3)ncnc2cc1OCCCN1CCCC1`, the residual activity came to 200% in experiment [1]; 96% in experiment [2]; 64% in [3]; 37% in experiment [4]; 64% in [5]; 62% in experiment [6]. Moreover, the residual activity amounted to 125% in experiment [7]; 91% in [8]; 94% in experiment [9]; 84% in experiment [10]; 100% in experiment [11]; 135% in experiment [12]. Also, the residual activity in experiment [13] was determined as 414%.
With `COc1cc2c(Oc3ccc(-c4nc5ccccc5s4)cc3F)ncnc2cc1OCCCN1CCN(C)CC1`, the residual activity in experiment [1] was determined as 229%; in experiment [2], 104%; in [3] it was 74%; in experiment [4], 36%; in experiment [5], 87%; in [6] it was 27%. Further, the residual activity in [7] is 107%; in experiment [8], 97%; in [9], 108%; in experiment [10], 47%; in experiment [11], 102%; in experiment [12], 126%. Moreover, the residual activity in experiment [13] turned out to be 180%.
For `COc1cc2c(Oc3ccc(-c4nc5ccccc5s4)cc3)ncnc2cc1OCCCN1CCN(C)CC1`, the residual activity in [1] turned out to be 256%; in [2] it was 96%; in experiment [3] it was 72%; in [4], 29%; in experiment [5] it was 96%; in [6], 28%. The residual activity in experiment [7] is 94%; in experiment [8], 89%; in experiment [9], 90%; in experiment [10] it was 54%; in experiment [11], 96%; in [12], 127%. Besides, the residual activity in experiment [13] amounted to 329%.

Values taken from ChEMBL document CHEMBL1152560, “Substituted 2-arylbenzothiazoles as kinase inhibitors: hit-to-lead optimization” (Bioorg Med Chem, 2009).
